Reference: US20120308562A1, “METHODS OF TREATING MESOTHELIOMA WITH A PI3K INHIBITOR COMPOUND” (priority 2011, published 2012)
Like-named read-outs stand apart in the source and are kept apart here.

How the values were obtained:
MCF7-neo/HER2 cell line = MCF7-neo/HER2 cell line IC50; assay type: cell-based
[1] = stability in human microsomes; assay type: in vitro ADME
[2] = stability in human hepatocytes; assay type: in vitro ADME
hERG = hERG (Homo sapiens, UniProt Q12809); test: hERG activity
clearance in rodents = settings: in vivo
clearance in dogs = settings: dog, in vivo
[3] = pharmacokinetics after a single oral dose (species not given); assay type: in vivo; settings: species not stated
[4] = system: MDA-MB-361.1 breast cancer xenograft; test: MDA-MB-361.1 breast cancer xenograft model; assay type: in vivo; settings: QD
MDA-MB-361.1 xenografts = test: nonclinical PK/PD model of tumor growth inhibition with predicted human PK; settings: predicted human PK and nonclinical PD data, preliminary
Source text: A nonclinical PK/PD model of tumor growth inhibition was developed using the indirect response model (Jusko W J. “Pharmacodynamics of chemotherapeutic effects: dose-time-response relationships for phase-nonspecific agents”, J Pharm Sci (1971) 60:892-5) to fit exposure and growth inhibition data based on four sets of experiments examining varying schedules and doses in the MDA-MB-361.1 xenografts. The PK/PD model was then used to predict minimal exposure needed to achieve 50% tumor growth inhibition, using the predicted human PK data and the nonclinical PD data. […] On the basis of MLP allometric scaling, a daily dose of approximately 18 mg may achieve this exposure. Dose escalation will continue until the MTD, even if 1.7 μM·hr exposure is surpassed and well tolerated, since it is well established that tumor xenograft models are not absolutely predictive of clinical response (Sausville and Burger 2006).

[5] = Phase I clinical pharmacokinetics (plasma, LC-MS/MS); assay type: in vivo, human; settings: for AUC(0-t): oral, individual patient, read-out: AUC0-24 h
Method: For Cycle 1 of the Phase I study, a single dose of GDC-0980 is administered to patients on Day 1 in a clinical setting that can accommodate frequent blood draws over a period of up to 48 hours after the dose is administered. Daily dosing will begin on Day 8 and continue for 21 days (Days 8-28), followed by a 7-day off-drug observation period (Days 29-35). Subsequent cycles will be 28 days in length (21 days of daily dosing followed by a 7-day observation period). Additional cohorts may be added to examine the tolerability of a 28-day dosing schedule with no observation period after the MTD is […] defined for the 21-day dosing schedule. GDC-0980 should be taken on an empty stomach (fasting) in the morning, unless otherwise instructed. For all patients Days 1 and 15 (PK sampling days), patients should be fasted overnight (at least 8-10 hours) prior to their dose on those days. On other days, patients should avoid consuming anything but water for 1 hour before and 2 hours after GDC-0980 administration. Each dose should be taken with a minimum of 3-4 ounces of water. […] PK: Plasma GDC-0980 concentrations were assayed by LC-MS/MS (Tandem Labs, Inc., Salt Lake City, Utah) with LLOQ 0.5 ng/mL and analyzed using noncompartmental analysis.

pAKT (S473) in PRP = test: pAKT in platelet-rich plasma (MSD assay), Phase I; assay type: in vivo, human
Method: pAKT in PRP: Total AKT and pAKT (S473) in PRP were measured by Meso Scale Discovery (MSD) assay, and the percent change in pAKT relative to baseline was calculated.

[6] = in vivo
Method: (§1) Patients with a history of Type 1 or 2 diabetes mellitus requiring regular medication were excluded. GDC-0980 was administered on Day 1, followed by 1 week of washout to evaluate single-dose PK and PD markers. GDC-0980 was then dosed QD for either 21 days or 28 days every 28-day cycle. Tumor assessments were performed after Cycles 1, 2, and then every 2 cycles using RECIST guidelines. Optional FDG-PET was obtained between Days 22-28 and Days 50-57.
(§2) Fasted blood glucose & insulin were monitored at clinical visits (pre-dose & 2 hrs post-dose). Dosing with GDC-0980 was allowed with =G2 blood glucose with appropriate monitoring, i.e., additional monitoring in clinic and fingerstick glucose testing at home.
(§3) Safety Analyses: All patients who receive any amount of GDC-0980 therapy will be included in the safety analyses. Safety will be assessed through summaries of adverse events, deaths, and changes in laboratory test results. All adverse events for all patients will be collected for the safety dataset. Verbatim descriptions of adverse events will be mapped to thesaurus terms. All recorded adverse event data will be listed by study site, patient, and cycle. All adverse events occurring on or after the first treatment will be summarized by mapped term, appropriate thesaurus levels, and NCI CTCAE, v3.0 toxicity grade. All serious adverse events will be listed separately and summarized. In addition, the incidence of symptomatic CHF and/or LVEF <40% will be summarized. Deaths reported during the study treatment period and those reported during follow-up after patient treatment discontinuation will be summarized. Laboratory data will be summarized by grade using the NCI CTCAE, v3.0 toxicity grade. Changes in LVEF over time will be summarized and listed by scheduled measurement time. The occurrence of antibodies to GDC-0980 will be listed.

mTOR = mTOR (Homo sapiens, UniProt P42345); test: biochemical
[7] = Phase I safety and tolerability
Method: as §1, §2, §3

mesothelioma = test: Phase I tumor response by RECIST, mesothelioma patients; settings: person; for decrease in target lesions by RECIST: 21/28 day schedule
Method: Tumor assessments (CT and/or magnetic resonance imaging [MRI] scans) are performed approximately every 6 weeks irrespective of dose delays, interruptions, or reductions. Bone and brain scans (either CT or MRI) may be performed at baseline and if clinically indicated during the study. Patient management decisions were made based on tumor assessments performed by investigators. The primary study endpoints related to response were determined by an independent radiologic review of patient scans, with assessments based on investigator reporting being secondary. If each non-target lesion cannot be assessed at a follow-up tumor assessment timepoint, patients may still be considered evaluable for timepoint response as long as all target lesions are measured. Patients with non-target lesions that were not assessed at a timepoint were assessed as having a partial response, stable disease, or progressive disease. All lesions, target and non-target, were assessed before a response was considered confirmed. To reduce the frequency of unevaluable non-target lesions, bone lesions visible on baseline CT scan as non-target lesion(s) for follow-up, were compared with bone lesions identified on the baseline bone scan where possible if lesions are not visible on both modalities or as easily and reproducibly assessed.
Tumor assessments were performed after Cycles 1, 2, and then every 2 cycles using RECIST guidelines. Optional FDG-PET was obtained between Days 22-28 and Days 50-57.

adrenal cortical cancer = test: Phase I tumor response by RECIST, adrenal cortical cancer patient; settings: person, 40 mg QD, 28/28 day schedule
Method: (§4) Tumor assessments (CT and/or magnetic resonance imaging [MRI] scans) are performed approximately every 6 weeks irrespective of dose delays, interruptions, or reductions. Bone and brain scans (either CT or MRI) may be performed at baseline and if clinically indicated during the study. Patient management decisions were made based on tumor assessments performed by investigators. The primary study endpoints related to response were determined by an independent radiologic review of patient scans, with assessments based on investigator reporting being secondary. If each non-target lesion cannot be assessed at a follow-up tumor assessment timepoint, patients may still be considered evaluable for timepoint response as long as all target lesions are measured. Patients with non-target lesions that were not assessed at a timepoint were assessed as having a partial response, stable disease, or progressive disease. All lesions, target and non-target, were assessed before a response was considered confirmed. To reduce the frequency of unevaluable non-target lesions, bone lesions visible on baseline CT scan as non-target lesion(s) for follow-up, were compared with bone lesions identified on the baseline bone scan where possible if lesions are not visible on both modalities or as easily and reproducibly assessed. […]

solid tumors = test: Phase I best RECIST response and time on study, all enrolled patients; settings: peritoneal mesothelioma and adrenal cancer patients
Method: as §4

[8] = human, plasma, patients, single oral dose

Chain of hERG (Q12809 whole entry): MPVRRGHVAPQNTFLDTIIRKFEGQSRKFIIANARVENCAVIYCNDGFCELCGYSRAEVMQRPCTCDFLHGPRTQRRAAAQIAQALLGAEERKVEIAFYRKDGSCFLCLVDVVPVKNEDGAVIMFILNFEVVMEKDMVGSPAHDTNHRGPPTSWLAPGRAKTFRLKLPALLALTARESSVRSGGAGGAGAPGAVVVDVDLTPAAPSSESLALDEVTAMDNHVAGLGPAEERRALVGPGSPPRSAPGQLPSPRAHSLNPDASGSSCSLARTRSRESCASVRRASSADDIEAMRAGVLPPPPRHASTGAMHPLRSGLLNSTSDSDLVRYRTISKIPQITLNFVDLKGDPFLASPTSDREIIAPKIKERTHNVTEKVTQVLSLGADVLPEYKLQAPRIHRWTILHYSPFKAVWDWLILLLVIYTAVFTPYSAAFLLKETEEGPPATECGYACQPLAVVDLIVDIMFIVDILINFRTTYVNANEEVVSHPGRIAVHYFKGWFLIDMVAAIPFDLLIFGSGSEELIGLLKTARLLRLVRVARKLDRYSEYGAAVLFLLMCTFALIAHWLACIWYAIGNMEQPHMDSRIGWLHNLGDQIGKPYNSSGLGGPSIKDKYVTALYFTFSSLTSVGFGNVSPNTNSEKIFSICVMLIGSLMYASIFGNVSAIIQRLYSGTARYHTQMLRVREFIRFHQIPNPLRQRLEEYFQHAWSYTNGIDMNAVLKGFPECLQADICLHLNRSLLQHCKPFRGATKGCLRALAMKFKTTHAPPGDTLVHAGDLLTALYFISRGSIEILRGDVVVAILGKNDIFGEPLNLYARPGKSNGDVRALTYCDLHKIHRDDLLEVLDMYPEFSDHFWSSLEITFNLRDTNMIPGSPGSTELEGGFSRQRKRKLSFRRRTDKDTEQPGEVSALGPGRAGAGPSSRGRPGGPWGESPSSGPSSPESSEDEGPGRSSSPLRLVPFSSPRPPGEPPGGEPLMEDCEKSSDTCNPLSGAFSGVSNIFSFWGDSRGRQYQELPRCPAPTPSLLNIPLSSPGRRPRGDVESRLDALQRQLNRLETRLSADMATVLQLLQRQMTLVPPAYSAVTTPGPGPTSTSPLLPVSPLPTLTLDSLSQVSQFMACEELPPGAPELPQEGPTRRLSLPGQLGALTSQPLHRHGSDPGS

In the case of Cc1c(CN2CCN(C(=O)[C@H](C)O)CC2)sc2c(N3CCOCC3)nc(-c3cnc(N)nc3)nc12 [GDC-0980, (S)-1-(4-((2-(2-aminopyrimidin-5-yl)-7-methyl-4-morpholinothieno[3,2-d]pyrimidin-6-yl)methyl)piperazin-1-yl)-2-hydroxypropan-1-one], the IC50 (MCF7-neo/HER2 cell line) is reported as 320 nM, the “stability in human microsomes” value [1] is reported as “stable” and the “stability in human hepatocytes” value [2] is reported as “stable”. It also gave an IC50 (hERG) greater than 100 µM, a clearance (clearance in rodents) of 60 mL/min/kg and a clearance (clearance in dogs) of 12 mL/min/kg. The half-life ([3]; in vivo, read-out: terminal half-life) was 360 to 1080 min, the “dose dependence of AUC and Cmax” value [3] was “dose-proportional increases” and the “minimum dose producing significant growth inhibition” value [4] was 1.0 mg/kg. For the same compound, the “minimal exposure (AUC) needed to achieve 50% tumor growth inhibition” value (MDA-MB-361.1 xenografts) was “approximately 1.7 μM·hr”, the AUC(0-t) ([5]; human, plasma, 8 mg QD, 21/28 day schedule) was roughly 0.4 µM·h and the AUC(0-t) ([5]; human, plasma, 32 mg QD, 21/28 day schedule) was roughly 4.4 µM·h. It also gave an AUC(0-t) ([5]; human, plasma, 40 mg QD, 28/28 day schedule) of roughly 4.1 µM·h, an AUC(0-t) ([5]; human, plasma, 50 mg QD, 21/28 day schedule) of roughly 3 µM·h and a Tmax [5, 8] of roughly 2 h. For the same compound, the half-life [5, 8] was 360 to 1080 min, the “dose dependence of AUC and Cmax” value ([5]; patients, single oral dose) was “dose-proportional increases” and the “decrease in pAKT in PRP” value (pAKT (S473) in PRP; doses of 16 mg) was 90%. The “time for which significant inhibition of pAKT was maintained” value (pAKT (S473) in PRP; doses of 50 mg) was 24 hours, the “patients with increased blood glucose” value ([6]; human) was 83.3% and the “drug-related AEs that occurred in =10% of patients” value [6] was “fatigue, diarrhea, rash, nausea, decreased appetite, mucositis, hyperglycemia, vomiting, pruritus, GERD (Gastroesophageal reflux disease), and constipation”. For the same compound, the “number of patients with G3 increased blood glucose” value [6] was “Six”, the Ki (mTOR) was 17.3 nM and the “dose at which the MTD was exceeded” value ([7]; QD, 21/28-day schedule) was 70 mg. For the same compound, the “G5 adverse event considered related to GDC-0980” value ([7]; metastatic colorectal cancer patient, 50 mg QD, about 1 week after starting Cycle 2) was “G5 adverse event of colitis”, the “time on study before progression of disease” value (mesothelioma; epitheloid mesothelioma, 8 mg QD, 21/28) was “about 4.5 months” and the “decrease in target lesions by RECIST” value (mesothelioma; epitheloid mesothelioma, PIK3CA R88Q, 8 mg QD, end of Cycle 2) was 26%. For the same compound, the “decrease in target lesions by RECIST” value (mesothelioma; epitheloid pleural mesothelioma, 50 mg QD, end of Cycles 1 and 2) was 26%, the “decrease in target lesions by RECIST” value (mesothelioma; peritoneal mesothelioma, 32 mg QD, end of Cycle 6) was 28% and the “decrease in target lesions by RECIST” value (adrenal cortical cancer; after 3 weeks of treatment in Cycle 2) was 39%. The “decrease in target lesions by RECIST” value (adrenal cortical cancer; end of Cycle 1) was 22% and the “number of patients still on study after a year” value (solid tumors) was 2.
